Target: T1, KRAS G12C 1-169, his-tagged protein, GDP-loaded (Homo sapiens, UniProt P01116, G12C)
T1 construct: KRAS G12C 1-169, his-tagged protein, GDP-loaded; His tag
Assay: Biochemical assay: covalent binding to KRAS G12C measured by mass spectrometry (RapidFire/TOF or Q-Exactive)
Conditions: covalent binding to KRAS G12C after a thirty minute incubation period
Description: Test compounds were prepared as 10 mM stock solutions in DMSO (Fisher cat #BP-231-100). KRAS G12C 1-169, his-tagged protein, GDP-loaded was diluted to 0.5 μM in buffer (20 mM Hepes, 150 mM NaCl, 1 mM MgCl2). Compounds were tested for activity as follows:
Compounds were diluted to 50× final test concentration in DMSO in 96-well storage plates. Compound stock solutions were vortexed before use and observed carefully for any sign of precipitation. Dilutions were as follow: • For 100 μM final compound concentration, compounds were diluted to 5000 μM (5 μL 10 mM compound stock+5 μL DMSO and mixed well by pipetting. • For 30 μM final compound concentration, compounds were diluted to 1500 μM (3 μL 10 mM compound stock+17 μL DMSO) and mixed well by pipetting. • For 10 μM final compound concentration, compounds were diluted to 500 μM (2 μL 10 mM compound stock+38 μL DMSO) and mixed well by pipetting. 49 μL of the stock protein solution was added to each well of a 96-well PCR plate (Fisher cat #1423027). 1 μl of the diluted 50× compounds were added to appropriate wells in the PCR plate using 12-channel pipettor. Reactions were mixed carefully and thoroughly by pipetting up/down with a 200 μL multi-channel pipettor. The plate was sealed well with aluminum plate seal, and stored in drawer at room temperature for 10 minutes, 30 minutes, 2 hours or 24 hours. 5 μL of 2% formic acid (Fisher cat #A117) in de-ionized H2O was then added to each well followed by mixing with a pipette. The plate was then resealed with aluminum seal and stored on dry ice until analyzed as described below.
The above described assays were analyzed by mass spectrometry according to one of the following two procedures:
The MS instrument is set to positive polarity, 2 GHz resolution, and low mass (1700) mode and allowed to equilibrate for 30 minutes. The instrument is then calibrated, switched to acquisition mode and the appropriate method loaded.
After another 30 minute equilibration time, a blank batch (i.e., buffer) is run to ensure equipment is operating properly. The samples are thawed at 37° C. for 10 minutes, briefly centrifuged, and transfer to the bench top. Wells A1 and H12 are spiked with 1 μL 500 μM internal standard peptide, and the plates centrifuged at 2000×g for 5 minutes. The method is then run and masses of each individual well recorded.
The masses (for which integration data is desired) for each well are pasted into the platemap and exported from the analysis. Masses for the internal standards are exported as well. The data at 50 ppm is extracted for the +19 charge state, and identity of well A1 is assigned using the internal standard spike and integrated. Peak data is exported as a TOF list and the above steps are repeated individually, for the +20, 21, 22, 23, 24, and 25 charge states.
The masses and peak intensities of KRAS G12C protein species were measured using a Dionex RSLCnano system (Thermo Scientific) connected to a Q Exactive Plus mass spectrometer (Thermo Scientific).
[…] of sample was each loaded onto a Aeris™ 3.6 μm WIDEPORE C4 200 Å, LC Column 50×2.1 mm column maintained at 40° C. at a flow rate of 600 μL/min with 20% Solvent A (0.1% formic acid in H2O) and 80% Solvent B (0.1% formic acid in acetonitrile). The liquid chromatography conditions were 20% solvent B for 1 minute, 20% to 60% solvent B for 1.5 minutes, 60% to 90% solvent for 0.5 minute, 90% solvent B for 0.2 minute, 90% to 20% solvent B for 0.2 minute, and then equilibrated for 1.6 minute before the following sample injection. The flow rate was maintained at 600 μL/min throughout the sample analysis.
The mass spectrometer was operated in profile mode at a resolution of 17500, 5 microscans, using 50 msec max injection time and an AGC target of 1×10^6, and a full mass range from 800-1850 m/z was recorded. The HCD trapping gas was optimized for maximum sensitivity for intact proteins. […]

Structure (SMILES) | Binding %
C=CC(=O)N1CC(c2nc(N3CCC(O)C3)c3cc(-c4cc(O)cc5ccccc45)ccc3n2)C1 (centres unmarked) [Compound 34, 1-(3-(6-(3-hydroxynaphthalen-1-yl)-4-(3-hydroxypyrrolidin-1-yl)quinazolin-2-yl)azetidin-1-yl)prop-2-en-1-one] | + (+ indicates binding activity up to 10%)
C=CC(=O)N1CC(c2nc(NC3CCN(C4CC4)CC3)c3cc(-c4c(C)ccc5[nH]ncc45)ccc3n2)C1 [Compound 31, 1-(3-(4-((1-cyclopropylpiperi-din-4-yl)amino)-6-(5-methyl-1H-indazol-4-yl)quinazolin-2-yl)azetidin-1-yl)prop-2-en-1-one] | + (+ indicates binding activity up to 10%)
C=CC(=O)N1CC(c2nc3ccc(-c4c(C)ccc5[nH]ncc45)cc3c(=O)n2CCCN(C)C)C1 [Compound 5, 2-(1-acryloylazetidin-3-yl)-3-(3-(dimethylamino)propyl)-6-(5-methyl-1H-indazol-4-yl)quinazolin-4(3H)-one] | ++ (++ indicates binding activity from 10 to 50%)
C=CC(=O)N1CC(c2nc3ccc(-c4cc(O)cc5ccccc45)cc3c(=O)n2CCCN(C)C)C1 [Compound 4, 2-(1-acryloylazetidin-3-yl)-3-(3-(dimethylamino)propyl)-6-(3-hydroxynaphthalen-1-yl)quinazolin-4(3H)-one] | +++ (+++ indicates binding activity greater than 50%)
C=CC(=O)N1CC(c2nc(NCCc3ncccn3)c3cc(-c4c(C)ccc5[nH]ncc45)ccc3n2)C1 [Compound 33, 1-(3-(6-(5-methyl-1H-indazol-4-yl)-4-((2-(pyrimidin-2-yl)ethyl)amino)quin-azolin-2-yl)azetidin-1-yl)prop-2-en-1-one] | + (+ indicates binding activity up to 10%)
C=CC(=O)N1CC(Cc2nc3ccc(-c4cc(O)cc5ccccc45)cc3c(=O)n2CCCN(C)C)C1 [Compound 27, 2-((1-acryloylazetidin-3-yl)methyl)-3-(3-(dimethylamino)propyl)-6-(3-hydroxynaphthalen-1-yl)quinazolin-4(3H)-one] | + (+ indicates binding activity up to 10%)
C=CC(=O)N1CC(c2nc(-n3ccnc3)c3cc(-c4cc(O)cc5ccccc45)ccc3n2)C1 [Compound 30, 1-(3-(6-(3-hydroxynaphthalen-1-yl)-4-(1H-imidazol-1-yl)quinazolin-2-yl)azetidin-1-yl)prop-2-en-1-one] | + (+ indicates binding activity up to 10%)
C=CC(=O)N1CC(c2nc(N3CC(N(C)C)C3)c3cc(-c4c(C)ccc5[nH]ncc45)ccc3n2)C1 [Compound 32, 1-(3-(4-(3-(dimethylamino)aze-tidin-1-yl)-6-(5-methyl-1H-indazol-4-yl)quinazolin-2-yl)azetidin-1-yl)prop-2-en-1-one] | + (+ indicates binding activity up to 10%)
C=CC(=O)N1CC(c2nc3ccc(-c4cccc5[nH]nc(C)c45)cc3c(=O)n2CCCN(C)C)C1 [Compound 7, 2-(1-acryloylazetidin-3-yl)-3-(3-(dimeth-ylamino)propyl)-6-(3-methyl-1H-indazol-4-yl)quinazolin-4(3H)-one] | + (+ indicates binding activity up to 10%)
C=CC(=O)N1CC(c2nc3ccc(-c4cc(O)cc5ccccc45)cc3c(=O)n2C)C1 [Compound 2, 2-(1-acryloylazetidin-3-yl)-6-(3-hydroxynaphthalen-1-yl)-3-methylquinazolin-4(3H)-one] | +++ (+++ indicates binding activity greater than 50%)
C=CC(=O)N1CC(c2nc(NCC(=O)N3CC(N(C)C)C3)c3cc(-c4cc(O)cc5ccccc45)ccc3n2)C1 [Compound 21, 1-(3-(4-((2-(3-(dimethylamino)azetidin-1-yl)-2-oxoethyl)amino)-6-(3-hydroxynaphthalen-1-yl)quinazolin-2-yl)azetidin-1-yl)prop-2-en-1-one] | + (+ indicates binding activity up to 10%)
C=CC(=O)N1CC(c2nc3ccc(-c4cccc5[nH]nc(I)c45)cc3c(=O)n2CCCN(C)C)C1 [Compound 6, 2-(1-acryloylazetidin-3-yl)-3-(3-(dimeth-ylamino)propyl)-6-(3-iodo-1H-indazol-4-yl)quinazolin-4(3H)-one] | + (+ indicates binding activity up to 10%)
C=CC(=O)N1CC(c2nc3ccc(-c4c(C)ccc5[nH]ncc45)cc3c(=O)n2C)C1 [Compound 3, 2-(1-acryloylazetidin-3-yl)-3-methyl-6-(5-methyl-1H-indazol-4-yl)quinazolin-4(3H)-one] | ++ (++ indicates binding activity from 10 to 50%)
C=CC(=O)N1CC(c2nc3ccc(-c4cc(O)cc5ccccc45)cc3c(=O)[nH]2)C1 [Compound 1, 2-(1-acryloylazetidin-3-yl)-6-(3-hydroxynaphthalen-1-yl)quinazolin-4(3H)-one] | ++ (++ indicates binding activity from 10 to 50%)
